Reference: patent publication US11059789B2, “Isoquinoline-steroid conjugates and uses thereof” (priority 2018, dated 2021)
pIC50: −log10 of the molar value.

How the values were obtained:
[1] = test system: RAW264.7 immortalized murine macrophages; assay: TNFα secretion assay (LPS-induced, ELISA); assay type: cell-based; conditions: RAW264.7 cells, 4 hrs
Experimental: The TNFα assay quantifies secreted TNFα from RAW264.7 immortalized murine macrophages as an indicator of inflammation. The cells were concurrently treated with LPS (as an inducer of inflammation) and a titration of test molecules or control compounds for 4 hrs. After the incubation period, the media was harvested and assayed via an ELISA assay. ODs of experimental samples are fit to those of a standard curve to extrapolate the TNFα concentration. IC50 values were calculated by fitting a curve to experimental values with the controls as the top and bottom limits of the curve. Selected compounds provided herein were subjected to this assay.

ROCK2 = ROCK2 (Homo sapiens (Human), UniProt O75116); assay: Kinase assay ROCK2; assay type: biochemical; conditions: HCl salt
Experimental: (§1) Inhibition of various kinases was assayed.

ROCK1 = ROCK1 (Homo sapiens (Human), UniProt Q13464); assay: Kinase assay ROCK1; assay type: biochemical; conditions: HCl salt
Experimental: as §1

PKA = PKA (Homo sapiens, UniProt P17612); assay: Kinase assay PKA; assay type: biochemical; conditions: HCl salt
Experimental: as §1

JAK1 = JAK1 (Homo sapiens (Human), UniProt P23458); assay: Kinase assay JAK1; assay type: biochemical; conditions: HCl salt
Experimental: as §1

JAK3 = JAK3 (Homo sapiens (Human), UniProt P52333); assay: Kinase assay JAK3; assay type: biochemical; conditions: HCl salt
Experimental: as §1

TYK2 = TYK2 (Homo sapiens (Human), UniProt P29597); assay: Kinase assay TYK2; assay type: biochemical; conditions: HCl salt
Experimental: as §1

IKKb = IKKb (Homo sapiens (Human), UniProt O14920); assay: Kinase assay IKKb; assay type: biochemical; conditions: HCl salt
Experimental: as §1

PKCh = PKCh (Homo sapiens (Human), UniProt P24723); assay: Kinase assay PKCh; assay type: biochemical; conditions: HCl salt
Experimental: as §1

PKCd = PKCd (Homo sapiens (Human), UniProt Q05655); assay: Kinase assay PKCd; assay type: biochemical; conditions: HCl salt
Experimental: as §1

PKCe = PKCe (Homo sapiens (Human), UniProt Q02156); assay: Kinase assay PKCe; assay type: biochemical; conditions: HCl salt
Experimental: as §1

AKT1 = AKT1 (Homo sapiens (Human), UniProt P31749); assay: Kinase assay AKT1; assay type: biochemical; conditions: HCl salt
Experimental: as §1

PTM = PTM assay; assay type: cell-based; conditions: HCl salt
Experimental: as §1

NFkB = NFkB assay; assay type: cell-based; conditions: HCl salt
Experimental: as §1

JAK2 = JAK2 (Homo sapiens (Human), UniProt O60674); assay: Kinase assay JAK2; assay type: biochemical; conditions: HCl salt
HTM = HTM assay; assay type: cell-based; conditions: HCl salt
Experimental: as §1

in vitro = assay type: cell-based

Sequence of ROCK1 (Q13464 whole entry, species assumed): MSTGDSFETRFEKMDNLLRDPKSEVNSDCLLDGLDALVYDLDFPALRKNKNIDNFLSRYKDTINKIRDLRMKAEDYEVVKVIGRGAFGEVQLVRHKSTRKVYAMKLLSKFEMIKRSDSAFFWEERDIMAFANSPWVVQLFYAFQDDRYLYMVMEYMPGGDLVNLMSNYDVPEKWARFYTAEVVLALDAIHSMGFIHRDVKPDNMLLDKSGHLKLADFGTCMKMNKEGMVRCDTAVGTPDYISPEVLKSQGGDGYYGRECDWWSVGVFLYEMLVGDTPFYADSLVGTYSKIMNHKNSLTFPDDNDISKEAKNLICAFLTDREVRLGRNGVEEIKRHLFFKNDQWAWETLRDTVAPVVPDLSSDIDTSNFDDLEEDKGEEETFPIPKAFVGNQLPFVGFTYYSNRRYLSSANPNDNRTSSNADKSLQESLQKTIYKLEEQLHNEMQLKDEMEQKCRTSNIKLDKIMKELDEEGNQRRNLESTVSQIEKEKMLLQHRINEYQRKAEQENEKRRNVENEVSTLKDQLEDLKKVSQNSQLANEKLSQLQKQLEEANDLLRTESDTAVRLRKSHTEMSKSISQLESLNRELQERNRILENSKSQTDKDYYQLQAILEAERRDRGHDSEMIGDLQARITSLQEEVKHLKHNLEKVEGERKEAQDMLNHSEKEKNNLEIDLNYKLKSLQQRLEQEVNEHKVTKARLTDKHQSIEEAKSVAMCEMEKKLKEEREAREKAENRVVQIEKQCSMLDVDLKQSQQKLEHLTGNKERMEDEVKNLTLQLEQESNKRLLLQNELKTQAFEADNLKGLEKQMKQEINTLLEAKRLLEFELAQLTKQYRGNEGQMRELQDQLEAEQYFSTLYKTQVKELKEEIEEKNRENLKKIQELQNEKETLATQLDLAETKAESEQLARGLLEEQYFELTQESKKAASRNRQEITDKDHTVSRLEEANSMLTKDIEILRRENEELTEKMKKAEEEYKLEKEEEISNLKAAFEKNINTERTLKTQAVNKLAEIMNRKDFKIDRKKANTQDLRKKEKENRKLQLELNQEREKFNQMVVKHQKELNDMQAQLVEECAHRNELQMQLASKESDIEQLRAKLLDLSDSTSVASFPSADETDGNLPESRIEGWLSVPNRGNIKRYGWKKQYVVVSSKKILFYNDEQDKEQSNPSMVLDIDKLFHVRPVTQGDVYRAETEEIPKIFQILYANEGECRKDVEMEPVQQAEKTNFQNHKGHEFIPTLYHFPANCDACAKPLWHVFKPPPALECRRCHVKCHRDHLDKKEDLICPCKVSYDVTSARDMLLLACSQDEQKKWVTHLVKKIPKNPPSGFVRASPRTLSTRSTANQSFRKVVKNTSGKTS
Sequence of JAK1 (P23458 whole entry, species assumed): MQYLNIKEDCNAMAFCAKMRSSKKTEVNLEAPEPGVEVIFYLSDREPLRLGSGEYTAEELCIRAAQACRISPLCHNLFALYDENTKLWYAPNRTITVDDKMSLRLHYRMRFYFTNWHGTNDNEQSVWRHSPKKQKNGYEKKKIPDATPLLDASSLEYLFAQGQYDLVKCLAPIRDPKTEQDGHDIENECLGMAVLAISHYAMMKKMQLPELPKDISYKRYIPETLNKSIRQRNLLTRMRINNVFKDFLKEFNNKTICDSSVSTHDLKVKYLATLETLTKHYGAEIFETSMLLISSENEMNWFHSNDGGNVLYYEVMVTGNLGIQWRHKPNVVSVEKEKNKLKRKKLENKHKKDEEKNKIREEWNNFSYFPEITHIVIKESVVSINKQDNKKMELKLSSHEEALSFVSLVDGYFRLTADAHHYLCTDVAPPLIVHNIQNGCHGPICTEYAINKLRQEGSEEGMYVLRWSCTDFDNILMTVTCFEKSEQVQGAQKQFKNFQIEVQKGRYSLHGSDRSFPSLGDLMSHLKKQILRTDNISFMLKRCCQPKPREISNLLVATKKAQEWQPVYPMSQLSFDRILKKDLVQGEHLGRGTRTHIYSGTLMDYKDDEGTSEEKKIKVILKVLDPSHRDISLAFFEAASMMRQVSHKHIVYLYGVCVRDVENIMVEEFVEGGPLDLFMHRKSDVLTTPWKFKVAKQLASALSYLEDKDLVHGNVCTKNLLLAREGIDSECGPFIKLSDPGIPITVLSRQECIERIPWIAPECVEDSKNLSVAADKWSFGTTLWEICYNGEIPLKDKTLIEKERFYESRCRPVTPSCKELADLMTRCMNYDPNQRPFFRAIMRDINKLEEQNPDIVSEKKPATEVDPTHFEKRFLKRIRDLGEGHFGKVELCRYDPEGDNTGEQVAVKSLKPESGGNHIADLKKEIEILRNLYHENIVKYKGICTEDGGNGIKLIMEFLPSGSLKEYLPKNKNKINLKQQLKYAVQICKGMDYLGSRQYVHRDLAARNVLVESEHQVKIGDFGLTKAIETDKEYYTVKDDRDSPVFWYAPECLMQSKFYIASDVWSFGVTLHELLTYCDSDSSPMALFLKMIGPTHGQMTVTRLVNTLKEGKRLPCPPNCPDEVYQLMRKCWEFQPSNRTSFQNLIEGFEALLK
Sequence of JAK3 (P52333 whole entry, species assumed): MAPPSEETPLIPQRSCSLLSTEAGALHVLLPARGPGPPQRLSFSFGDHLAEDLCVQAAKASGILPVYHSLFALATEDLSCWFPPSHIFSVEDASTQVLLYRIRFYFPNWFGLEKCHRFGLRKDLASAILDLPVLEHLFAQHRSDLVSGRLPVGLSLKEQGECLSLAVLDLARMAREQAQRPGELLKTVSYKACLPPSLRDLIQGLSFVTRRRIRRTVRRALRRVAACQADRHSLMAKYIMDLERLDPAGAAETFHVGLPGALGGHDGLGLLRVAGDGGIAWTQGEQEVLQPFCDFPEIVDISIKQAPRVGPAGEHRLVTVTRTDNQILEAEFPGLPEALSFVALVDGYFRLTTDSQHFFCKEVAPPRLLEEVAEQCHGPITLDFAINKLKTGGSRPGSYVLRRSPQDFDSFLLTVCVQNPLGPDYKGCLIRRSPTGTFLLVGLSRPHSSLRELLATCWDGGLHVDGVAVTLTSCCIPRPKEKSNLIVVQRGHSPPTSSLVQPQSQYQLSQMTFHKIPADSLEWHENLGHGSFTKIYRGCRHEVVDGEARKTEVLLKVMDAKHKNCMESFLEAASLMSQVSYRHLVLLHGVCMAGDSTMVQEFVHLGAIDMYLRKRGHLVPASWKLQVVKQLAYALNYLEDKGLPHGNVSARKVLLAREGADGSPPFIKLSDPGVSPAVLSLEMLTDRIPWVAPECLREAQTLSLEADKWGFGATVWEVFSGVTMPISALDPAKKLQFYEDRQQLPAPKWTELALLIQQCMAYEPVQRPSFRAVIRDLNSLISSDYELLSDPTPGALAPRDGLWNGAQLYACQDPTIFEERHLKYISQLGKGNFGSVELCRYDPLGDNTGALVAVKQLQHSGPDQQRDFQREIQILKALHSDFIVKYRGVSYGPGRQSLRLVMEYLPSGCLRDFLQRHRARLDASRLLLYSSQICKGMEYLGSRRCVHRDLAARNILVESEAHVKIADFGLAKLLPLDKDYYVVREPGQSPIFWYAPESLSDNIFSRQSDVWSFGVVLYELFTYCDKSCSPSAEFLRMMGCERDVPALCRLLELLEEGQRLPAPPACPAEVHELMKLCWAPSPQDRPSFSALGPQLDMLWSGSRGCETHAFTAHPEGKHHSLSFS
Sequence of TYK2 (P29597 whole entry, species assumed): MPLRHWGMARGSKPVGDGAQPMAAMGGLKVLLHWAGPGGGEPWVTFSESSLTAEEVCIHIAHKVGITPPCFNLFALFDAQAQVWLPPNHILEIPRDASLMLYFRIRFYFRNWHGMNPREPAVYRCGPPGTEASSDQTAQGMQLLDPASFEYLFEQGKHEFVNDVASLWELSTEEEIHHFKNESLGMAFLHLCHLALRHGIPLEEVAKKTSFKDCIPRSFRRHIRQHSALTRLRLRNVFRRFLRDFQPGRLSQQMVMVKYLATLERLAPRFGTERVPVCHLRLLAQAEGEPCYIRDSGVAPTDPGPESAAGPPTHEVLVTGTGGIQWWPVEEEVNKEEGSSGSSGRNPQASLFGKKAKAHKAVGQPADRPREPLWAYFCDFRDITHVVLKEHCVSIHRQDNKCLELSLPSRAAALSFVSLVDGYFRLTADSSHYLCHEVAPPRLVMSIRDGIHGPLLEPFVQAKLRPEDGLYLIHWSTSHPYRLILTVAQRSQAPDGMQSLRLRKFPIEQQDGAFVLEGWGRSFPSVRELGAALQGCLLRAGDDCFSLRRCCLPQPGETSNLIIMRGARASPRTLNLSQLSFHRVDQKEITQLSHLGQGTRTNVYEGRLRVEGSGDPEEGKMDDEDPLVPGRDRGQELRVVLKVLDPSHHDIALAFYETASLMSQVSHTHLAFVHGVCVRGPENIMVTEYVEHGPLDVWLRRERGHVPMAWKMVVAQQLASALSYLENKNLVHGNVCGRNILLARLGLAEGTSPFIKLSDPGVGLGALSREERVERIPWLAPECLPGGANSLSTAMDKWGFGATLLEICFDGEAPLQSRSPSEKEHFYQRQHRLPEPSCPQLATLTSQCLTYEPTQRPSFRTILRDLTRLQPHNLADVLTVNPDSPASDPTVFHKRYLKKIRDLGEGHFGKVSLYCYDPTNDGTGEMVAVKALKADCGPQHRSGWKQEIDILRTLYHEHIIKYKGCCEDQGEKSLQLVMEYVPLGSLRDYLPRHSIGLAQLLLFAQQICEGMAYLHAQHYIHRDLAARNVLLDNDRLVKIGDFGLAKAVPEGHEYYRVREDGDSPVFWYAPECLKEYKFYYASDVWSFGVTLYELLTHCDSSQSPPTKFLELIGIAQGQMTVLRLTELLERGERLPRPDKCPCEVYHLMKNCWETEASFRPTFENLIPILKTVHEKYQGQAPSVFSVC

Q: With `C[C@@H]1C[C@H]2[C@@H]3CCC4=CC(=O)C=C[C@]4(C)[C@@]3(F)[C@@H](O)C[C@]2(C)[C@@]1(O)C(=O)COC(=O)CCC(=O)OCc1ccc(C(CNC(=O)OC(C)(C)C)C(=O)Nc2ccc3cnccc3c2)cc1` (stereo partly drawn) [Example 4, 4-(3-((tert-butoxycarbonyl)amino)-1-(isoquinolin-6-ylamino)-1-oxopropan-2-yl)benzyl (2-((8S,9R,10S,11S,13S,14S,16R,17R)-9-fluoro-11,17-dihydroxy-10,13,16-trimethyl-3-oxo-6,7,8,9,10,11,12,13,14,15,16,17-dodecahydro-3H-cyclopenta[a]phenanthren-17-yl)-2-oxoethyl) succinate] as the compound, how does the pIC50 ([1]; Mus musculus) read?
A: Its pIC50 is 6.64.

Q: With `C[C@@H]1C[C@H]2[C@@H]3CCC4=CC(=O)C=C[C@]4(C)[C@@]3(F)[C@@H](O)C[C@]2(C)[C@@]1(O)C(=O)COC(=O)CCC(=O)OCc1ccc(C(CCNC(=O)OC(C)(C)C)C(=O)Nc2ccc3cnccc3c2)cc1` (stereo partly shown) [Example 11] as the compound, how does the pIC50 ([1]; Mus musculus) read?
A: Its pIC50 is 6.37.

Q: With `C[C@@H]1C[C@H]2[C@@H]3CCC4=CC(=O)C=C[C@]4(C)[C@@]3(F)[C@@H](O)C[C@]2(C)[C@@]1(O)C(=O)COC(=O)CCC(=O)OCc1ccc(C(CCN)C(=O)Nc2ccc3cnccc3c2)cc1` (stereo partly shown) [Example 12] as the compound, how does the pIC50 ([1]; Mus musculus) read?
A: Its pIC50 is 7.04.

Q: With `CC(C)(C)OC(=O)NC[C@@H](C(=O)Nc1ccc2cnccc2c1)c1ccc(COC(=O)CCC(=O)OCC(=O)[C@@]2(O)CC[C@H]3[C@@H]4CCC5=CC(=O)C=C[C@]5(C)[C@H]4[C@@H](O)C[C@@]32C)cc1` [Example 14] as the compound, how does the pIC50 ([1]; Mus musculus) read?
A: The pIC50 was 6.21.

Q: With `C[C@]12C=CC(=O)C=C1CC[C@@H]1[C@@H]2[C@@H](O)C[C@@]2(C)[C@H]1CC[C@]2(O)C(=O)COC(=O)C1CC1C(=O)OCc1ccc([C@@H](CN)C(=O)Nc2ccc3cnccc3c2)cc1` (stereo partly shown) [Example 19] as the compound, how does the pIC50 (ROCK2) read?
A: The pIC50 was 7.57.

Q: What about the pIC50 (ROCK1) of the same compound?
A: Its pIC50 is 7.24.

Q: What about the pIC50 (PKA) of the same compound?
A: The pIC50 was 6.48.

Q: What about the pIC50 (JAK1) of the same compound?
A: Its pIC50 is 5.02.

Q: And the pIC50 (JAK3)?
A: Its pIC50 is 5.59.

Q: What about the pIC50 (TYK2) of the same compound?
A: The pIC50 was 4.30.

Q: What about the pIC50 (IKKb) of the same compound?
A: The pIC50 was 4.30.

Q: And the pIC50 (PKCh)?
A: Its pIC50 is 6.36.

Q: And the pIC50 (PKCd)?
A: Its pIC50 is 6.23.

Q: What about the pIC50 (PKCe) of the same compound?
A: Its pIC50 is 5.38.

Q: And the pIC50 (AKT1)?
A: Its pIC50 is 5.60.

Q: What about the pIC50 (PTM) of the same compound?
A: Its pIC50 is 6.15.

Q: What about the pIC50 (NFkB) of the same compound?
A: The pIC50 was 5.00.

Q: With `C[C@@H]1C[C@H]2[C@@H]3CCC4=CC(=O)C=C[C@]4(C)[C@@]3(F)[C@@H](O)C[C@]2(C)[C@@]1(O)C(=O)COC(=O)CCC(=O)OCc1ccc(C(C(=O)Nc2ccc3cnccc3c2)N(C)C)cc1` (stereo partly shown) [Example 20] as the compound, how does the pIC50 ([1]; Mus musculus) read?
A: Its pIC50 is 6.84.

Q: With `CN(C)C(C(=O)Nc1ccc2cnccc2c1)c1ccc(COC(=O)CCC(=O)OCC(=O)[C@@]2(O)CC[C@H]3[C@@H]4CCC5=CC(=O)C=C[C@]5(C)[C@H]4[C@@H](O)C[C@@]32C)cc1` (stereo partly shown) [Example 21] as the compound, how does the pIC50 ([1]; Mus musculus) read?
A: Its pIC50 is 5.78.

Q: With `CN(C)C(C(=O)Nc1ccc2cnccc2c1)c1ccc(COC(=O)CCC(=O)OCC(=O)[C@@]23OC(C)(C)O[C@@H]2C[C@H]2[C@@H]4C[C@H](F)C5=CC(=O)C=C[C@]5(C)[C@@]4(F)[C@@H](O)C[C@@]23C)cc1` (stereo partly shown) [Example 23] as the compound, how does the pIC50 ([1]; Mus musculus) read?
A: Its pIC50 is 8.35.

Q: What does the source list for `C[C@@H]1C[C@H]2[C@@H]3CCC4=CC(=O)C=C[C@]4(C)[C@@]3(F)[C@@H](O)C[C@]2(C)[C@@]1(O)C(=O)COC(=O)CCC(=O)OCc1ccc([C@@H](CN)C(=O)Nc2ccc3cnccc3c2)cc1` [Example 25]?
A: pIC50 (ROCK2): 7.77; pIC50 (ROCK1): 7.60; pIC50 (PKA): 6.86; pIC50 (JAK1): 4.30; pIC50 (JAK2): 4.39; pIC50 (JAK3): 4.67; pIC50 (TYK2): 4.30; pIC50 (IKKb): 4.41; pIC50 (PKCh): 6.76; pIC50 (PKCd): 6.65; pIC50 (PKCe): 5.80; pIC50 (AKT1): 6.02; pIC50 (PTM): 6.53; pIC50 (HTM): 8.35; pIC50 (in vitro): 4.00; pIC50 (NFkB): 7.41

Q: With `C[C@@H]1C[C@H]2[C@@H]3CCC4=CC(=O)C=C[C@]4(C)[C@@]3(F)[C@@H](O)C[C@]2(C)[C@@]1(O)C(=O)COC(=O)CCC(=O)OCCc1ccc(C(CN)C(=O)Nc2ccc3cnccc3c2)cc1` (stereo partly shown) [Example 26] as the compound, how does the pIC50 ([1]; Mus musculus) read?
A: The pIC50 was 6.64.

Q: With `C[C@@H]1C[C@H]2[C@@H]3CCC4=CC(=O)C=C[C@]4(C)[C@@]3(F)[C@@H](O)C[C@]2(C)[C@@]1(O)C(=O)COC(=O)C1CC1C(=O)OCc1ccc([C@@H](CN)C(=O)Nc2ccc3cnccc3c2)cc1` (stereo partly shown) [Example 27] as the compound, how does the pIC50 (ROCK2) read?
A: Its pIC50 is 7.89.

Q: And the pIC50 (ROCK1)?
A: The pIC50 was 7.54.

Q: And the pIC50 (PKA)?
A: The pIC50 was 6.50.

Q: What about the pIC50 (JAK1) of the same compound?
A: The pIC50 was 4.30.

Q: What about the pIC50 (JAK2) of the same compound?
A: The pIC50 was 4.38.

Q: And the pIC50 (JAK3)?
A: Its pIC50 is 4.93.

Q: And the pIC50 (TYK2)?
A: Its pIC50 is 4.30.

Q: What about the pIC50 (IKKb) of the same compound?
A: Its pIC50 is 4.33.

Q: What about the pIC50 (PKCh) of the same compound?
A: The pIC50 was 6.48.

Q: And the pIC50 (PKCd)?
A: The pIC50 was 6.29.

Q: And the pIC50 (PKCe)?
A: The pIC50 was 5.46.

Q: What about the pIC50 (AKT1) of the same compound?
A: Its pIC50 is 5.58.

Q: What about the pIC50 (PTM) of the same compound?
A: The pIC50 was 6.84.

Q: What about the pIC50 (HTM) of the same compound?
A: The pIC50 was 8.22.

Q: What about the pIC50 (in vitro) of the same compound?
A: The pIC50 was 4.00.

Q: And the pIC50 (NFkB)?
A: Its pIC50 is 5.75.

Q: With `CN(C)C(C(=O)Nc1ccc2cnccc2c1)c1ccc(COC(=O)CCC(=O)OCC(=O)[C@@]23OC(C)(C)O[C@@H]2C[C@H]2[C@@H]4CCC5=CC(=O)C=C[C@]5(C)[C@@]4(F)[C@@H](O)C[C@@]23C)cc1` (stereo partly shown) [Example 28] as the compound, how does the pIC50 ([1]; Mus musculus) read?
A: The pIC50 was 7.81.

Q: With `CC(C)(C)OC(=O)NC[C@@H](C(=O)Nc1ccc2cnccc2c1)c1ccc(COC(=O)CCC(=O)OCC(=O)[C@@]23OC(C)(C)O[C@@H]2C[C@H]2[C@@H]4CCC5=CC(=O)C=C[C@]5(C)[C@@]4(F)[C@@H](O)C[C@@]23C)cc1` [Example 29] as the compound, how does the pIC50 ([1]; Mus musculus) read?
A: Its pIC50 is 7.15.

Q: With `CC(C)(C)OC(=O)NCC(C(=O)Nc1ccc2cnccc2c1)c1ccc(CCOC(=O)CCC(=O)OCC(=O)[C@@]23OC(C)(C)O[C@@H]2C[C@H]2[C@@H]4C[C@H](F)C5=CC(=O)C=C[C@]5(C)[C@@]4(F)[C@@H](O)C[C@@]23C)cc1` (stereo partly shown) [Example 31] as the compound, how does the pIC50 ([1]; Mus musculus) read?
A: The pIC50 was 5.26.

Q: With `C[C@@H]1C[C@H]2[C@@H]3CCC4=CC(=O)C=C[C@]4(C)[C@@]3(F)[C@@H](O)C[C@]2(C)[C@@]1(O)C(=O)COC(=O)C1CC1C(=O)OCCc1ccc(C(CN)C(=O)Nc2ccc3cnccc3c2)cc1` (stereo partly shown) [Example 37] as the compound, how does the pIC50 ([1]; Mus musculus) read?
A: The pIC50 was 5.51.

Q: Which results are given for `CC1(C)O[C@@H]2C[C@H]3[C@@H]4C[C@H](F)C5=CC(=O)C=C[C@]5(C)[C@@]4(F)[C@@H](O)C[C@]3(C)[C@]2(C(=O)COC(=O)CCC(=O)OCc2ccc([C@@H](CN)C(=O)Nc3ccc4cnccc4c3)cc2)O1` [Example 40]?
A: pIC50 (ROCK2): 7.89; pIC50 (ROCK1): 7.72; pIC50 (PKA): 7.15; pIC50 (JAK1): 4.30; pIC50 (JAK3): 4.75; pIC50 (TYK2): 4.30; pIC50 (IKKb): 4.48; pIC50 (PKCh): 6.72; pIC50 (PKCd): 6.82; pIC50 (PKCe): 6.61; pIC50 (AKT1): 6.28; pIC50 (PTM): 6.66; pIC50 (HTM): 7.96; pIC50 (NFkB): 7.55

Q: With `C[C@@H]1C[C@H]2[C@@H]3CCC4=CC(=O)C=C[C@]4(C)[C@@]3(F)[C@@H](O)C[C@]2(C)[C@@]1(O)C(=O)COC(=O)c1cccc([C@@H]2C[C@H]2C(=O)Nc2ccc3cnccc3c2)c1` [Example 90, 2-((8S,9R,10S,11S,13S,14S,16R,17R)-9-fluoro-11,17-dihydroxy-10,13,16-trimethyl-3-oxo-6,7,8,9,10,11,12,13,14,15,16,17-dodecahydro-3H-cyclopenta[a]phenanthren-17-yl)-2-oxoethyl 3-((1R,2R)-2-(isoquinolin-6-ylcarbamoyl)cyclopropyl)benzoate] as the compound, how does the pIC50 ([1]; Mus musculus) read?
A: The pIC50 was 6.52.

Q: With `C[C@@H]1C[C@H]2[C@@H]3CCC4=CC(=O)C=C[C@]4(C)[C@@]3(F)[C@@H](O)C[C@]2(C)[C@@]1(O)C(=O)COC(=O)c1cccc([C@@H]2C[C@H]2C(=O)Nc2ccc3cnccc3c2F)c1` [Example 91] as the compound, how does the pIC50 [1] read?
A: The pIC50 was 6.99.
